In one data set the test system is HUVEC. Briefly: VEGF165-stimulated HUVEC growth, MTT assay. Type of data set: cell-based. The settings on record: Homo sapiens, induced by VEGF165 (50 ng/mL), read-out: IC50, HUVEC proliferation. The text has this: The inhibition effect of YLT192 on VEGF165-stimulated HUVEC growth was examined using MTT assay.
The subject of another data set is HCT116 cells. Briefly: Annexin V/propidium iodide apoptosis assay, flow cytometry. Type of data set: cell-based, human. The settings on record: 48 hours; annexin V-FITC and PI staining; concentration-dependent. As for the experimental part:
Figure 4 Inhibitory effects of YLT192 on tumor cells. (A) YLT192 inhibited U251 and HCT116 cells proliferation. The EdU incorporation assay was conducted on U251 and HCT116 cells after treated with YLT192 for 24 hours. The EdU-positive (red fluorescent staining) cells and Hoechst staining (blue fluorescent staining) cells represented proliferating and total cells in the fluorescent images, respectively (100×). Quantification was shown on the right panels. (B) YLT192 induced apoptosis of HCT116 cells. HCT116 cells were treated with YLT192 or vehicle for 48 hours followed by flow cytometric analysis of annexin V-FITC and PI staining. The proportion of early apoptotic cells (annexin V positive) and late apoptotic cells (annexin V and PI positive cells) were shown. Typical apoptosis-related proteins caspase 3 and Bax were detected by western blot. Each has the expression of β-actin as internal control. The full size blots were shown in the Supplemental Figure S6 online. For (A) and (B), one representative experiment of three is shown. Data are means ± SEM, *P < 0.05, **P < 0.01. (C) YLT192 inhibited oncogenic signaling pathways in tumor cells in vitro. U251 and HCT116 cells were treated with YLT192 or vehicle for 48 hours and the expression of protein in different signaling pathways were detected by western blot with specific antibodies. Blots are representative of three experiments. […]

Data set [1] is described as follows: Pharmacokinetics in male wistar rats. Type of data set: in vivo. An excerpt: Appropriate pharmacokinetic parameters are essential to determine the efficacy of anti-cancer drugs. We determined the pharmacokinetic characteristics of YLT192 in male wistar rats. The pharmacokinetic parameters of YLT192 are summarized in Supplementary Table S2 and the plasma concentration versus time profile is shown in Supplementary Figure S3.
Supplementary Table S2: Pharmacokinetic parameters for YLT192 in rats (n=6 mice per group). Data are means ± SD. […]
Note: I.V.=intravenous, P.O.=orally administration, Cmax =maximum plasma concentration, AUC=area under the curve, T1/2=half life of the inhibitor, CL=clearance , Vz=volume of distribution, F=bioavailability
Supplementary Figure S3. Mean plasma concentration-time curves of YLT192.
After I.V.(20mg/kg) and P.O.(50mg/kg) administration of YLT192 in wistar male rats, the concentration of YLT192 in the plasma was determined by HPLC (n=6 mice per group). Data are means ± SD.

Another data set concerns HCT116 tumors. Briefly: Subcutaneous xenograft model. Format: in vivo. The settings on record: 100 mg/kg oral once daily; HCT116 xenograft in nude mice; vs vehicle. As for the experimental part:
(§1) Figure 5 Anti-tumor activities of YLT192 in vivo. (A) U251 and HCT116 tumor-bearing mice were treated orally with YLT192 at 25, 50 and 100 mg/kg or vehicle daily, respectively. […] (B) Body weight changes in YLT192 and vehicle treated mice. […] For A and B, data are means ± SD. (C) and (D), YLT192 inhibited tumor cell proliferation in HCT116 tumor tissues in vivo. Mice bearing HCT116 tumor xenograft were treated with YLT192 at 50 and 100 mg/kg or vehicle and sacrificed at the end of the experiment. The tumor tissues were removed for further immunohistochemistry analysis using anti-Ki67 (C) and anti-p-p44/42 MAPK antibodies (D). (E) YLT192 induced tumor cell apoptosis in HCT116 tumor in vivo. Apoptosis was measured by TUNEL staining (n = 6 mice per group). Scale bars represent 100 μm.
(§2) All animal experiments were approved and conducted by the Institutional Animal Care and Treatment Committee of Sichuan University in China (Permit Number: 20121205). […] Tumor growth and body weight was measured every three days during the treatment. Tumor volumes were calculated using the formula as follow: volume (mm^3) = 0.5 × length (mm) × width (mm)^2. Growth inhibition was calculated from the start of treatment by comparison of the mean change in tumor volume for vehicle and treated group as before.

In another data set the test system is U251 tumors. Briefly: Subcutaneous xenograft model. The settings on record: 100 mg/kg oral once daily; U251 xenograft in nude mice; vs vehicle. Format: in vivo. As for the experimental part:
as §1, §2

The conditions of data set [2]: mouse, in vivo. As for the experimental part:
All the HCT116 model mice were sacrificed after 24 days of treatment.
During the treatment of human colorectal carcinoma HCT116 xenograft on nude mice, they were also observed every day to investigate the side effects and toxicities after YLT192's longer time administration. Finally, serum biochemistry, hematological analysis, organ coefficients and histological examinations of heart, liver, spleen, lung, and kidney were carried out after dissection. Serum chemistry and hematological analysis was carried out.
in normal tissues. After the treatment of HCT116 xenograft, heart, liver, spleen, lung
and kidney of the mice were isolated and stained with H&E (n=6 mice per group).
Scale bars represent 50μm.
(1 picture or pasted object on this page, not shown here)

[3] abbreviates: male, Wistar, rat, plasma, po, 50 mg/kg, P.O. 50 mg/kg, means ± SD, n=6.

Molecules are shown by their SMILES.

For the compound `CNC(=O)c1cc(Oc2ccc(NC(=O)c3cccc(OC)c3)cc2)ccn1` [YLT192], the IC50 in the data set with HUVEC worked out at 2300 nM. For the same compound, in the data set with HCT116 cells, the “apoptosis in HCT116 cells” value was “increased apoptosis”. The compound further came in with a Vz in data set [1] (P.O. 50 mg/kg, means ± SD, n=6) of 7.84 ± 1.12 L/kg. In addition, the half-life in data set [1] (male, Wistar, rat, plasma, iv, 20 mg/kg, I.V. 20 mg/kg, means ± SD, n=6) is 246 ± 126 min; in data set [1] (setting [3]), 546 ± 246 min. For the same compound, the AUC(0-inf) in data set [1] (male, Wistar, rat, plasma, iv, I.V. 20 mg/kg, means ± SD, n=6) came out at 65900 ± 6200 ng·h/mL; in data set [1] (male, Wistar, rat, plasma, po, P.O. 50 mg/kg, means ± SD, n=6) it was 83300 ± 21900 ng·h/mL. Besides, in data set [1] (male, Wistar, rat, plasma, iv, I.V. 20 mg/kg, means ± SD, n=6, read-out: Vz), the Vd worked out at 1.79 ± 0.24 L/kg. Besides, in data set [1] (male, Wistar, rat, plasma, oral, P.O. 50 mg/kg vs I.V. 20 mg/kg, read-out: F (oral bioavailability)), the bioavailability was determined as 50.5%. Moreover, the Cmax in data set [1] (setting [3]) was 4100 ± 400 ng/mL. Moreover, the tumor volume inhibition with HCT116 tumors turned out to be 61%; in the data set on U251 tumors, 60%. Besides, in data set [2], the “adverse effects, such as diarrhea or toxic death” value is reported as “did not observed adverse effects”. Further, in data set [2], the “microscopic examination of the heart, liver, spleen, lung, and kidney” value is listed as “no pathological changes”.

Source of the values: article PMC4129416, “YLT192, a Novel, Orally Active Bioavailable Inhibitor of VEGFR2 Signaling with Potent Antiangiogenic Activity and Antitumor Efficacy in Preclinical Models” (Scientific Reports, 2014).
